Values belong to the compound of their own block, whether it stands above or below them.
Assays:
[1] = test system: Human Peripheral Blood Mononuclear Cells (PBMC) or Enriched Adherent Mononuclear Cells; experiment: Cell assay: IL-1β assay with human PBMC or enriched adherent mononuclear cells; assay type: cell-based; conditions: LPS-stimulated cells, mature IL-1β in supernatant by ELISA
Description: IL-1β Assay with a Mixed Population of Human Peripheral Blood Mononuclear Cells (PBMC) or Enriched Adherent Mononuclear Cells
Processing of pre-IL-1S by ICE can be measured in cell culture using a variety of cell sources. Human PBMC obtained from healthy donors provides a mixed population of lymphocyte subtypes and mononuclear cells that produce a spectrum of interleukins and cytokines in response to many classes of physiological stimulators. Adherent mononuclear cells from PBMC provides an enriched source of normal monocytes for selective studies of cytokine production by activated cells.
An initial dilution series of test compound in DMSO or ethanol is prepared, with a subsequent dilution into RPMI-10% FBS media (containing 2 mM L-glutamine, 10 mM HEPES, 50 U and 50 ug/ml pen/strep) respectively to yield drugs at 4× the final test concentration containing 0.4% DMSO or 0.4% ethanol. The final concentration of DMSO is 0.1% for all drug dilutions. A concentration titration which brackets the apparent Ki for a test compound determined in an ICE inhibition assay is generally used for the primary compound screen.
We generally test 5-6 compound dilutions and have performed the cellular component of the assay in duplicate, with duplicate ELISA determinations on each cell culture supernatant.
Buffy coat cells isolated from one pint human blood (yielding 40-45 ml final volume plasma plus cells) are diluted with media to 80 ml and LeukoPREP separation tubes (Becton Dickinson) are each overlaid with 10 ml of cell suspension. After 15 min centrifugation at 1500-1800×g, the plasma/media layer is aspirated and then the mononuclear cell layer is collected with a Pasteur pipette and transferred to a 15 ml conical centrifuge tube (Corning). Media is added to bring the volume to 15 ml, gently mix the cells by inversion and centrifuge at 300×g for 15 min. Resuspend the PBMC pellet in a small volume of media, count cells and adjust to 6×10^6 cells/ml.
For the cellular assay, add 1.0 ml of the cell suspension to each well of a 24-well flat bottom tissue culture plate (Corning), 0.5 ml test compound dilution and 0.5 ml LPS solution (Sigma #L-3012; 20 ng/ml solution prepared in complete RPMI media; final LPS concentration 5 ng/ml). The 0.5 ml additions of test compound and LPS are usually sufficient to mix the contents of the wells. Three control mixtures are run per experiment, with either LPS alone, solvent vehicle control, and/or additional media to adjust the final culture volume to 2.0 ml. The cell cultures are incubated for 16-18 hr at 37° C. in the presence of 5% CO2.
At the end of the incubation period, cells are harvested and transferred to 15 ml conical centrifuge tubes. After centrifugation for 10 min at 200×g, supernatants are harvested and transferred to 1.5 ml Eppendorf tubes. It may be noted that the cell pellet may be utilized for a biochemical evaluation of pre-IL-1S and/or mature IL-1β content in cytosol extracts by western blotting or ELISA with pre-IL-1β specific antisera.
PBMC are isolated and prepared as described above. Media (1.0 ml) is first added to wells followed by 0.5 ml of the PBMC suspension. After a one hour incubation, plates are gently shaken and nonadherent cells aspirated from each well. Wells are then gently washed three times with 1.0 ml of media and final resuspended in 1.0 ml media. The enrichment for adherent cells generally yields 2.5−3.0×10^5 cells per well. The addition of test compounds, LPS, cell incubation conditions and processing of supernatants proceeds as described above.
We have used Quantikine kits (R&D Systems) for measurement of mature IL-1β. Assays are performed according to the manufacturer's directions. Mature IL-1β levels of about 1-3 ng/ml in both PBMC and adherent mononuclear cell positive controls are observed. ELISA assays are performed on 1:5, 1:10 and 1:20 dilutions of supernatants from LPS-positive controls to select the optimal dilution for supernatants in the test panel.

[2] = molecular target: T1, ICE (Homo sapiens, UniProt P29466); experiment: Enzyme assay with UV-visible substrate (Succinyl-Tyr-Val-Ala-Asp-pNitroanilide); assay type: biochemical
T1 sequence (P29466 120-297 limits assumed): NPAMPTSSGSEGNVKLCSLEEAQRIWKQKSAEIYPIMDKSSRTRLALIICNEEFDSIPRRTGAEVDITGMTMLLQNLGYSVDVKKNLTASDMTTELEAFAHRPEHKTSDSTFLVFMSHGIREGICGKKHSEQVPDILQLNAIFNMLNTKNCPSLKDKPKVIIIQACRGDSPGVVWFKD
T1 sequence (P29466 317-404 limits assumed): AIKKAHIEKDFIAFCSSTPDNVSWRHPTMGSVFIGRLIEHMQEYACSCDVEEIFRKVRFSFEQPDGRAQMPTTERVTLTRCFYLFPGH
Procedure: 1. Enzyme Assay with UV-Visible Substrate
This assay is run using an Succinyl-Tyr-Val-Ala-Asp-pNitroanilide substrate. Synthesis of analogous substrates is described by L. A. Reiter (Int. J. Peptide Protein Res. 43, 87-96 (1994)). The assay mixture contains:
The visible ICE assay is run in a 96-well microtiter plate. Buffer, ICE and DMSO (if inhibitor is present) are added to the wells in the order listed. The components are left to incubate at room temperature for 15 minutes starting at the time that all components are present in all wells. The microtiter plate reader is set to incubate at 37° C. After the 15 minute incubation, substrate is added directly to the wells and the reaction is monitored by following the release of the chromophore (pNA) at 405-603 nm at 37° C. for 20 minutes. A linear fit of the data is performed and the rate is calculated in mOD/min. DMSO is only present during experiments involving inhibitors, buffer is used to make up the volume to 100 μl in the other experiments.
For determination of enzyme inhibition constants (Ki) or the mode of inhibition (competitive, uncompetitive or noncompetitive), the rate data determined in the enzyme assays at varying inhibitor concentrations are computer-fit to standard enzyme kinetic equations (see I. H. Segel, Enzyme Kinetics, Wiley-Interscience, 1975).

[3] = Homo sapiens, PBMC, Example 6 table
[4] = Homo sapiens, PBMC, Example 4 table

Compound: CS(=O)(=O)N[C@H]1CCC(=O)N2CCC[C@@H](C(=O)N[C@H](C=O)CC(=O)O)N2C1=O [Compound 139]
IC50 [1, 3]: 2 µM
Ki ([2]; Example 6 table): 0.35 µM

Compound: O=C(O)C[C@H](NC(=O)Cn1c(Cc2ccccc2)ccc(NC(=O)CCc2ccccc2)c1=O)C(=O)COCc1ccccc1Cl [Compound 90, N-2-(6-Benzyl-1,2-dihydro-2-oxo-3-(3-phenylpropionyl)amino-1-pyridyl)acetyl-3-amino-5-(2-chlorobenzyloxy)-4-oxo-pentanoic acid]
IC50 [1, 3]: 6.2 µM
Ki ([2]; Example 6 table): 0.42 µM

Compound: COc1cccc2nc(C(=O)[C@H](CC(=O)O)NC(=O)[C@@H]3C[C@@H](Oc4ccccc4)CN3C(C)=O)oc12 [Compound 87, N-Acetyl(4-(R)-phenoxy)prolinyl-3(S)-amino-4-(7-methoxybenzoxazol-2-yl)-4-oxo-butanoic acid]
IC50 [1, 3]: 35 µM
Ki ([2]; Example 6 table): 7.2 µM

Compound: O=C(O)C[C@H](NC(=O)Cn1c(Cc2ccccc2)ccc(NC(=O)CCc2ccccc2)c1=O)C(=O)c1ncc(-c2c(Cl)cccc2Cl)s1 [Compound 91]
IC50 [1, 3]: > 25 µM
Ki ([2]; Example 6 table): 0.26 µM

Compound: CC(C)[C@H](NC(=O)OCc1ccccc1)C(=O)N[C@@H](C)C(=O)N[C@@H](CC(=O)O)C(=O)c1nc2ccccc2o1 [Compound 63, (3S)N-(N-Benzyloxycarbonyl-(S)-valinyl-(S)-alaninyl)-3-amino-4-(2-benzoxazolyl)-4-oxobutanoate]
IC50 ([1]; Example 4 table): 4.1 µM
Ki ([2]; Example 4 table): 0.85 µM

Compound: COc1cccc2nc(C(=O)[C@H](CC(=O)O)NC(=O)[C@@H]3C[C@@H](Oc4ccccc4)CN3C(=O)[C@@H](NC(C)=O)C(C)C)oc12 [Compound 86, N-Acetyl-(S)-valinyl-(4-(S)-phenoxy)prolinyl-3(S)-amino-4-(7-methoxybenzoxazol-2-yl)-4-oxo-butanoic acid]
IC50 [1, 3]: 4 µM
Ki ([2]; Example 6 table): 0.175 µM

Compound: CC(=O)N[C@H](C(=O)N1C[C@H](Oc2ccccc2)C[C@H]1C(=O)N[C@@H](CC(=O)O)C(=O)c1ncc(-c2c(Cl)cccc2Cl)o1)C(C)C [Compound 160]
IC50 [1, 3]: 2.25 µM
Ki ([2]; Example 6 table): 0.145 µM

Compound: CC(=O)N[C@@H](Cc1ccc(O)cc1)C(=O)N[C@H](C(=O)N[C@@H](C)C(=O)N[C@@H](CC(=O)O)C(=O)c1ncc(-c2c(Cl)cccc2Cl)s1)C(C)C [Compound 154]
IC50 [1, 3]: 2.4 µM
Ki ([2]; Example 6 table): 0.042 µM

Compound: CC(C)[C@H](NC(=O)OCc1ccccc1)C(=O)N[C@@H](C)C(=O)N[C@@H](CC(=O)O)C(=O)c1ncc(-c2ccccc2C(F)(F)F)o1 [Compound 144]
IC50 [1, 3]: > 20 µM
Ki ([2]; Example 6 table): 0.32 µM

Compound: CC(C)[C@H](NC(=O)OCc1ccccc1)C(=O)N[C@@H](C)C(=O)N[C@@H](CC(=O)O)C(=O)c1ncc(-c2c(Cl)cccc2Cl)o1 [Compound 146]
IC50 [1, 3]: 3.8 µM
Ki ([2]; Example 6 table): 0.16 µM

Compound: O=C[C@H](CC(=O)O)NC(=O)[C@@H]1CCCN2CC[C@H](NC(=O)CCc3ccccc3)C(=O)N12 [Compound 133]
IC50 [1, 3]: > 30 µM
Ki ([2]; Example 6 table): 50 µM

Compound: CC(=O)N[C@@H](Cc1ccc(O)cc1)C(=O)N[C@H](C(=O)N[C@@H](C)C(=O)N[C@@H](CC(=O)O)C(=O)c1ncc(-c2c(Cl)cccc2Cl)o1)C(C)C [Compound 163]
IC50 [1, 3]: 1.2 µM
Ki ([2]; Example 6 table): 0.0028 µM

Compound: COc1cccc2nc(C(=O)[C@H](CC(=O)O)NC(=O)[C@@H]3C[C@@H](Oc4ccccc4)CN3C(=O)[C@@H](NC(=O)[C@H](Cc3ccc(O)cc3)NC(C)=O)C(C)C)oc12 [Compound 159]
IC50 [1, 3]: 8 µM
Ki ([2]; Example 6 table): 0.0017 µM

The next lines start with results.

Ki ([2]; Example 6 table): 0.29 µM
Compound: COc1cccc2nc(C(=O)[C@H](CC(=O)O)NC(=O)[C@@H]3CCc4ncc(NC(=O)CCc5ccccc5)c(=O)n43)oc12 [Compound 102b, 4-(7-methyoxy-benzoxazol-2-yl)-4-oxo-(3S)-{[4-oxo-3-(3-phenyl-propionylamino)-4,6,7,8-tetrahydro-pyrrolo[1,2-a]pyrimidine-(6S)-carbonyl]-amino}-butric acid]
IC50 [1, 3]: 1.75 µM

Ki ([2]; Example 6 table): 0.4 µM
Compound: COc1cccc2nc(C(=O)[C@H](CC(=O)O)NC(=O)CN3C(=O)[C@@H](NC(=O)CCc4ccccc4)CN(C(=O)CCc4ccccc4)c4ccccc43)oc12 [Compound 108b, 4-(7-Methoxybenzoxazol-2-yl)-4-oxo-3(S)-{2-[2-oxo-5-(3-phenylpropionyl)-3(S)-(3-phenylpropionylamino)-2,3,4,5-tetrahydrobenzo[b][1,4]diazepin-1-yl]-acetylamino}butyric acid]
IC50 [1, 3]: 25 µM

Ki ([2]; Example 6 table): 3.8 µM
Compound: O=C[C@H](CC(=O)O)NC(=O)CN1C(=O)[C@@H](NC(=O)CCc2ccccc2)CN(Cc2ccccc2)c2ccccc21 [Compound 106c, 3(S)-{2-[5-Benzyl-2-oxo-3-(3(S)-phenylpropionylamino)-2,3,4,5-tetrahydrobenzo[b][1, 4]diazepin-1-yl]-acetylamino}-4-oxobutyric acid]
IC50 [1, 3]: > 30 µM

Ki ([2]; Example 6 table): 2.3 µM
Compound: O=C[C@H](CC(=O)O)NC(=O)CN1C(=O)[C@@H](NC(=O)CCc2ccccc2)CNc2ccccc21 [Compound 106a]
IC50 [1, 3]: 30 µM

Ki ([2]; Example 4 table): 0.019 µM
Compound: O=C[C@H](CC(=O)O)NC(=O)[C@@H]1CCCN2C(=O)CC[C@H](NC(=O)CCc3ccccc3)C(=O)N12 [Compound 47a, [3S, (1S,9S)]3-(6,10-Dioxo-octahydro-9-(3-phenylpropionylamino)-6H-pyridazino[1,2-a][1,2]diazepine-1-carboxamido)-4-oxobutanoic acid]
IC50 [1, 4]: 2.1 µM

Ki ([2]; Example 4 table): 0.05 µM
Compound: (3S)t-Butyl N-(N-acetyl-(S)-tyrosinyl-(S)-valinyl-(S)-alaninyl)-3-amino-4-(2-(4-methoxybenzoxazolyl))-4-oxobutanoate [Compound 69b]
IC50 ([1]; Example 4 table): 0.745 µM

Ki ([2]; Example 4 table): 0.215 µM
Compound: O=C[C@H](CC(=O)O)NC(=O)Cn1c(Cc2ccccc2)ccc(NC(=O)CCCc2ccccc2)c1=O [Compound 54l, 3(S)3-(6-Benzyl-1,2-dihydro-2-oxo-3-(4-phenylbutyryl)carbonylamino-1-pyridyl)acetylamino-4-oxobutanoic acid]
IC50 ([1]; Example 4 table): 7 µM

Ki ([2]; Example 4 table): 1.2 µM
Compound: O=C[C@H](CC(=O)O)NC(=O)Cn1c(CCc2ccccc2)ccc(NC(=O)CCc2ccccc2)c1=O [Compound 54c, 3(S)3-(1,2-Dihydro-2-oxo-6-phenethyl-3(3-phenyl-propionyl)amino-1-pyridyl)acetylamino-4-oxobutanoic acid]
IC50 [1, 4]: > 19 µM

Reference: US20110015371A1 (Vertex Pharmaceuticals Incorporated, priority 1994, published 2011)
